# Experimental data reported in US20050107356A1, “Combination of a CB1 receptor antagonist and of a product which activates dopaminergic neurotransmission in the brain, the pharmaceutical compositions comprising them and their use in the treatment of parkinson's disease” (Aventis Pharma S.A., priority 2001, published 2005).
# Marks after values point to notes of the source that are not given here.
# Experiments:
# Assay type in all cases: in vivo
# [1] = test system: Reserpine-treated rats; test: Reserpine-induced akinesia in the rat, locomotor activity; CB1 antagonist po one hour before quinpirole (D2 dopaminergic agonist); details: recorded 1 hour
# Protocol: (§1) The synergistic effect of the combination of one or more products which activate dopaminergic neurotransmission in the brain and of one or more CB1 antagonists in the treatment of Parkinson's disease was determined in a model of akinesia induced by reserpine in the rat according to the following protocol:
# (§2) Male Sprague-Dawley rats were treated with reserpine administered subcutaneously at a dose of 3 mg/kg (1 ml/kg) in order to induce akinesia in the animal. 18 hours after this treatment, the locomotor activity of these animals was measured and recorded using an automatic system (Videotrack, France). The locomotion, expressed in centimeters, is estimated by a mean overall distance covered during this period (n=11-38 rats per group). The statistical analysis is carried out by a variance analysis and a post-hoc comparison (if appropriate) using a Mann-Whitney or Dunnett test. A significant effect is recorded for p<0.05.
# (§3) The studies by the oral route are carried out in a hydrophobic formulation solvent Labrafil/Labrasol (40/60%, w/w). These products are administered (in a volume of 1 ml/kg) one hour before the dopaminergic agonist. The recording of the locomotor activity begins 5 min after the intraperitoneal injection of the dopaminergic agonist and lasts 1 hour. The D1 dopaminergic agonist is 0.3 mg/kg C1-APB. The D2 dopaminergic agonist is 0.1 mg/kg quinpirole.
# [2] = test system: Reserpine-treated rats; test: Reserpine-induced akinesia in the rat, locomotor activity; CB1 antagonist i.p. co-administered with a strong dose of levodopa + benserazide (dyskinesia model); details: CB1 antagonist 3 mg/kg i.p., levodopa + benserazide 50 mg/kg, recorded 2.5 hours
# Protocol: as §1, §2
# (§4) The results for the ip administration of the CB1 antagonists (Table 1) are expressed as percentage of increase with respect to the activity of quinpirole and as percentage of decrease with respect to the activity of a very strong dose of levodopa.
# The combination of a CB1 receptor antagonist and of a strong dose of levodopa (dyskinesia model) is produced in the following way: […]
# [3] = test system: Reserpine-treated rats; test: Reserpine-induced akinesia in the rat, locomotor activity; CB1 antagonist i.p. co-administered with quinpirole (D2 dopaminergic agonist); details: CB1 antagonist 1.5 mg/kg i.p., locomotor activity recorded 1 hour
# Protocol: as §1, §2, §4
# The combination of a CB1 receptor antagonist and of a D2 dopaminergic agonist (quinpirole) is produced in the following way: […]
# [4] = test system: Reserpine-treated rats; test: Reserpine-induced akinesia in the rat, locomotor activity; CB1 antagonist po one hour before C1-APB (SKF 82958, D1 dopaminergic agonist); details: recorded 1 hour
# Protocol: as §1, §2, §3
smiles,measurement,setting,value
"CS(=O)(=O)C(=C1CN(C(c2ccc(Cl)cc2)c2ccc(Cl)cc2)C1)c1cc(F)cc(F)c1 [Example 1, 1-[bis(4-chlorophenyl)methyl]-3-[(3,5-difluorophenyl)(methylsulfonyl)methylene]azetidine]",Combination with quinpirole (0.1 mg/kg ip): percentage of increase with respect to the activity of quinpirole,[1]; CB1 antagonist 1 mg/kg po,+33% NS
same,Combination with quinpirole (0.1 mg/kg ip): percentage of increase with respect to the activity of quinpirole,[1]; CB1 antagonist 3 mg/kg po,+58%**
same,Combination with quinpirole (0.1 mg/kg ip): percentage of increase with respect to the activity of quinpirole,[1]; CB1 antagonist 10 mg/kg po,+23% NS
same,Combination with levodopa (120 mg/kg ip): percentage of decrease with respect to the activity of a very strong dose of levodopa,[2],−42%*
same,Combination with quinpirole (62.5 μg/kg ip): percentage of increase with respect to the activity of quinpirole,[3],+125%***
same,Combination with C1-APB (0.3 mg/kg ip): percentage of decrease with respect to the activity of a strong dose of C1-APB,[4]; CB1 antagonist 1 mg/kg po,−33% NS
same,Combination with C1-APB (0.3 mg/kg ip): percentage of decrease with respect to the activity of a strong dose of C1-APB,[4]; CB1 antagonist 3 mg/kg po,−67%**
same,Combination with C1-APB (0.3 mg/kg ip): percentage of decrease with respect to the activity of a strong dose of C1-APB,[4]; CB1 antagonist 10 mg/kg po,−62%**
